Data published in patent publication US7271190B2, “Indazole compounds as β3 adrenoceptor agonist” (Asahi Kasei Pharma Corporation, priority 2001, dated 2007).
Counter-ions that a name gives are not always drawn.

Legend:
human β3 = biological target: T1, human β3 (Homo sapiens, UniProt P13945); experiment: Human β3-agonist activities (cAMP in transfected CHO cells); type: cell-based; conditions: for EC50: CHO cells expressing human β3, cAMP, 30 minutes; for Emax: CHO, read-out: Intrinsic activity*
T1 construct: used as a probe to obtain the full length human β3 gene from a human genomic library; expressed in transfected cells; host or cells: CHO (Chinese hamster ovary) cells, pcDNA3 vector
T1 sequence (P13945 whole entry): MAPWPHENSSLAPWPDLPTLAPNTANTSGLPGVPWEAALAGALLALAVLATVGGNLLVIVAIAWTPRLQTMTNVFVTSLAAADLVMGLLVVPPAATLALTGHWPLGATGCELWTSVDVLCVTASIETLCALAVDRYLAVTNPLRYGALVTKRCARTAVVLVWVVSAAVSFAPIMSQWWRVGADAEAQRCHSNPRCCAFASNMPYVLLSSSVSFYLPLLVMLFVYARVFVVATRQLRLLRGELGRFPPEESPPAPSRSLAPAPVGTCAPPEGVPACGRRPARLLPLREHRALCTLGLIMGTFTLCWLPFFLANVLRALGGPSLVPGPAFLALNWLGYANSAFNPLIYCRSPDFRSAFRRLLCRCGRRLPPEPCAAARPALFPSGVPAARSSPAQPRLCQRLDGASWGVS
Method: Human β3-Agonist Activities
Human β3-agonist activities were determined using CHO (Chinese hamster ovary) cells transfected with pcDNA3 (mfd. by Invitrogen) to which human β3 gene had been inserted. Human β3 fragment was first obtained from human adipose tissue cDNA (mfd. by Clonetech) by PCR using the primer of β3 (Krief, et al., J. Clin. Invest., vol. 91, pp. 344-349 (1993)). The human β3 fragment thus obtained was used as a probe to obtain the full length human β3 gene from a human genomic library (mfd. by Clonetech). The above cells were cultured in a Ham F-12 medium supplemented with 10% fetal bovine serum, 400 μg/mL geneticin (Gibco BRL), 100 U/mL penicillin and […] streptomycin. After placing these cells (5×10^5) into a 6-well plate and culturing them for 24 hours, they were allowed to stand on a serum-free Ham F-12 medium for 2 hours. The compound was first dissolved in DMSO, repeatedly diluted by ten times with Ham F-12 supplemented with 1 mM isobutylmethyl-xanthine and 1 mM ascorbic acid to a final concentration of from 10^−5 to 10^−12 M, and then added to the cells. After the cells were cultured for 30 minutes, the medium was removed, followed by addition of 0.5 mL of 1 N NaOH. The medium was allowed to stand for 20 minutes and then 0.5 mL of 1 N acetic acid was added to the medium. The medium was stirred and then centrifuged, followed by quantitating cAMP with cAMP EIA kit (mfd. by Cayman). Isoproterenol was purchased from RBI (Research Biochemicals International).

ddy mice = experiment: Toxicity test, oral, mice; type: in vivo; conditions: orally, 100 mg/kg, 6-week old male ddy mice, eight animals
Method: Each of the present compounds synthesized in Examples 1 and 2 were orally administered to 6-week old male ddy mice (CHARLES RIVER JAPAN) at 100 mg/kg. […] The other compounds, which achieved the same results, were also shown to have a low toxicity.

[1] = Relative activities (%) as compared with isoproterenol

| EC50 (human β3) [nM] | Emax (human β3; [1]) [%] | SMILES | animals found dead (ddy mice) | Intrinsic activity* (human β3; [1]) [%] |
| --- | --- | --- | --- | --- |
| 23 | 38 | CCOC(=O)CCc1c(C)[nH]c2cc(OCCNC[C@H](O)c3cccc(NS(C)(=O)=O)c3)ccc12 [Example 13, ethyl (R)-3-[6-[2-[2-(3-methylsulfonylamino)phenyl-2-hydroxyethylamino]ethoxy]-2-methyl-1H-indol-3-yl]propionate] |  |  |
| 32 | 55 | CCOC(=O)CCc1c(CC)[nH]c2cc(OCCNC[C@H](O)c3cccc(NS(C)(=O)=O)c3)ccc12 [Example 20] |  |  |
| 2.8 | 105 | Cc1c(-c2cccnc2)[nH]c2cc(OCCNC[C@H](O)c3cccc(NS(C)(=O)=O)c3)ccc12 [Example 72, (R)-N-[3-[1-hydroxy-2-[2-(3-methyl-2-pyridin-3-yl-1H-indol-6-yloxy)ethylamino]ethyl]phenyl]methanesulfonamide] |  |  |
| 3.5 | 75 | CCc1c(-c2cccnc2)[nH]c2cc(OCCNC[C@H](O)c3cccc(NS(C)(=O)=O)c3)ccc12 [Example 73, (R)-N-[3-[2-[2-(3-ethyl-2-pyridin-3-yl-1H-indol-6-yloxy)ethylamino]-1-hydroxyethyl]phenyl]methanesulfonamide] |  |  |
| 3.9 | 71 | Cc1c(-c2ccncc2)[nH]c2cc(OCCNC[C@H](O)c3cccc(NS(C)(=O)=O)c3)ccc12 [Example 74, (R)-N-[3-[1-hydroxy-2-[2-(3-methyl-2-pyridin-4-yl-1H-indol-6-yloxy)ethylamino]ethyl]phenyl]methanesulfonamide] |  |  |
| 4.4 | 79 | Cc1c(C2CCCN(C(=O)OC(C)(C)C)C2)[nH]c2cc(OCCNC[C@H](O)c3cccc(NS(C)(=O)=O)c3)ccc12 (stereo partly drawn) [Example 75, (R)-N-[3-[2-[2-[2-(N′-t-butyloxycarbonylpiperidin-3-yl)-3-methyl-1H-indol-6-yloxy]ethylamino]-1-hydroxyethyl]phenyl]methanesulfonamide] |  |  |
| 3.4 | 65 | Cc1c(-c2cccnc2)[nH]c2cc(OCCNC[C@H](O)c3ccc(F)c(NS(C)(=O)=O)c3)ccc12 [Example 79, (R)-N-[2-fluoro-5-[1-hydroxy-2-[2-(3-methyl-2-pyridin-3-yl-1H-indol-6-yloxy)ethylamino]ethyl]phenyl]methanesulfonamide] |  |  |
| 2.8 | 63 | CCOC(=O)CCc1[nH]c2cc(OCCNC[C@H](O)c3ccc(F)c(NS(C)(=O)=O)c3)ccc2c1C [Example 80, ethyl (R)-3-[6-[2-[2-(4-fluoro-3-methylsulfonylaminophenyl)-2-hydroxyethylamino]ethoxy]-3-methyl-1H-indol-2-yl]propionate] |  |  |
| 2.8 | 77 | Cc1c(CCC(=O)N(C)C)[nH]c2cc(OCCNC[C@H](O)c3cccc(NS(C)(=O)=O)c3)ccc12 [Example 81] |  |  |
| 1.4 | 81 | CCOC(=O)CCc1[nH]c2cc(OCCNC[C@H](O)c3cccc(NS(C)(=O)=O)c3)ccc2c1C [Example 82, ethyl (R)-3-[3-methyl-6-[2-[2-(3-methylsulfonylaminophenyl)-2-hydroxyethylamino]ethoxy]-1H-indol-2-yl]propionate] |  |  |
| 12 | 81 | Cc1n[nH]c2cc(OCCNC[C@H](O)c3cccc(NS(C)(=O)=O)c3)ccc12 [Example 84, (R)-N-[3-[2-[2-(3-methylindazol-6-yloxy)ethylamino]-1-hydroxyethyl]phenyl]methanesulfonamide hydrochloride] |  |  |
| 26 | 64 | COc1n[nH]c2cc(OCCNC[C@H](O)c3cccc(NS(C)(=O)=O)c3)ccc12 [Example 86, (R)-N-[3-[2-[2-(3-methoxyindazol-6-yloxy)ethylamino]-1-hydroxyethyl]phenyl]methanesulfonamide] |  |  |
| 4.7 | 52 | Cc1n[nH]c2cc(OCCNC[C@H](O)c3ccc(Cl)c(NS(C)(=O)=O)c3)ccc12 [Example 88, (R)-N-[5-[2-[2-(3-methylindazol-6-yloxy)ethylamino]-1-hydroxyethyl]-2-chlorophenyl]methanesulfonamide] |  |  |
| 11 | 80 | CNS(=O)(=O)c1cc([C@@H](O)CNCCOc2ccc3c(C)n[nH]c3c2)ccc1O [Example 89, (R)-N-methyl-[5-[2-[2-(3-methylindazol-6-yloxy)ethylamino]-1-hydroxyethyl]-2-hydroxyl]benzenesulfonamide] |  |  |

| SMILES | EC50 (human β3) [nM] | Emax (human β3; [1]) [%] | animals found dead (ddy mice) | Intrinsic activity* (human β3; [1]) [%] |
| --- | --- | --- | --- | --- |
| CCOC(=O)c1[nH]c2cc(OCCNC[C@H](O)c3cccc(NS(C)(=O)=O)c3)ccc2c1C [Example 1, ethyl (R)-6-[2-[2-(3-methylsulfonylamino)phenyl-2-hydroxyethylamino]ethoxy]-3-methyl-1H-indole-2-carboxylate hydrochloride] | 15 | 97 | none of the eight animals were found to be dead |  |
| Cc1c(C(=O)O)[nH]c2cc(OCCNC[C@H](O)c3cccc(NS(C)(=O)=O)c3)ccc12 [Example 2, (R)-6-[2-[2-(3-methylsulfonylamino)phenyl-2-hydroxyethylamino]ethoxy]-3-methyl-1H-indole-2-carboxylic acid] | 18 | 124 | none of the eight animals were found to be dead |  |
| Cc1c(C2CCCNC2)[nH]c2cc(OC[C@@H](O)NCCc3cccc(NS(C)(=O)=O)c3)ccc12 (stereo partly drawn) [Example 76, (R)-N-[3-[2-[1-hydroxy-2-(3-methyl-2-piperidin-3-yl-1H-indol-6-yloxy)ethylamino]ethyl]phenyl]methanesulfonamide] | 21 |  |  | 76 |
